# Experimental data taken from article PMC10780202, “Systemic Treatment with Fas-Blocking Peptide Attenuates Apoptosis in Brain Ischemia” (International Journal of Molecular Sciences, 2024).
# Tests used:
# [1] = tested on: Jurkat cells; test: FasL-mediated apoptosis in Jurkat cells, Annexin V staining (effect of PEG size); assay type: cell-based; details: membrane-bound soluble FasL 20 ng/ml, 3 hr, peptides 300 µM, FasL alone approximately 40% apoptosis, three independent experiments, Fig S1
# Excerpt: In a prior study, we observed that the Fas-blocking peptide (FBP) effectively disrupted Fas–FasL interactions, thereby inhibiting Fas-mediated apoptosis both in vitro and in vivo when delivered intranasally. In this study, we explored the impact of FBP through the clinically relevant systemic route of delivery. To conjugate FBP with leptin, a brain-targeting peptide that effectively penetrates the BBB, we employed polyethylene glycol (PEG) as a linker. We initially evaluated the toxicity of PEG of various sizes in Jurkat cells. The treatment of Jurkat cells with membrane-bound FasL induced approximately 40% apoptosis compared to non-FasL (normal) cells. […] Based on our findings, we conjugated PEG-2K to FBP (PEG-FBP) and then linked it with the leptin peptide. […] (Figure S2). The conjugation schematic is illustrated in Figure 1A.
# Figure S1. Effect of PEGylation length on apoptosis inhibition by FBP peptides. ( A) Apoptosis in Jurkat cells was assessed 3 hr post- treatment with membrane-bound soluble FasL (20 ng/ml), with and without peptides at a concentration of 300 µM using Annexin V staining. (B-C) Bar graphs illustrating the percentage of cells in early (B) and late (C) apoptosis. The compar ison includes non- treated, ctrl- FBP, FBP, and various PEGylated FBP (1K, 2K, 3.4K, 5K, 10K) after FasL treatment in Jurkat cells. […]
# [2] = tested on: hypoxic-N2a cells; test: FasL-induced apoptosis in hypoxic N2a cells, Annexin V-PE staining; assay type: cell-based, mouse; details: hypoxic N2a cells treated with FasL, then peptide; for effect on Fas-mediated apoptosis / cell death compared to control: Fig 1B,C, three independent experiments
# Description: Figure 1 The inhibitory effect of FBP or leptin-PEG-FBP (L-P-F) on FasL-induced apoptosis in hypoxic-N2a. (A) Schematic illustration of the L-P-F peptide synthesis. (B,C) The N2a cells were cultured in a hypoxic condition in the presence of membrane-bound soluble FasL (5 nM) for 6 h, as described in the Methods section. The cells were then treated with 300 μM of the indicated peptides for 6 h and examined for Annexin V-PE staining. (B) Representative histograms illustrate the percentage of apoptosis with the peptide treatments, depicting live cells (in black) and apoptotic cells (in red). (C) Bar graph represents the percentage of Annexin V positive cells with the peptide treatments. Normoxia describes cells cultured in normal oxygen conditions. Hypoxia describes cells cultured in hypoxic conditions. The bar graph indicates the average ± SD of three independent experiments. The data in (C) was analyzed using Mann–Whitney U test (* p < 0.05; ns: not-significant). TEXT PRINTED IN THE PICTURE: (B) Mock: Annexin V: 86.4 | (B) ctrl-FBP: Annexin V: 82.0 | (B) Leptin: Annexin V: 83.5 | (B) FBP: Annexin V: 54.0 | (B) L-P-F: Annexin V: 56.5 DOUBTS OF THE COPYIST ABOUT THIS PICTURE: Panel B: the gate numbers have no unit or measure printed beside them; 'Annexin V' comes from the axis label printed once at the edge of the panel. / Panel B, Mock: this is a control treatment, not a substance; it is included because a gate value is printed with it. / Small print in panel B, so these digits are not certain: Mock 86.4, ctrl-FBP 82.0, Leptin 83.5, FBP 54.0, L-P-F 56.5.
# To evaluate the effect of leptin-PEG-FBP on Fas-mediated apoptosis, hypoxic Neuro2a mouse neuroblastoma (N2a) cells were treated with FasL ([…]), followed by a treatment with the peptides indicated in Figure 1B.
# Neuro2a mouse neuroblastoma cells (N2a) were obtained from ATCC (Rockville, MD) and cultured in Dulbecco’s modified Eagle’s medium (DMEM, Gibco) containing 10% fetal bovine serum, penicillin (100 IU/mL), and streptomycin (100 μg/mL). To mimic the in vitro ischemia/reperfusion environment, N2a cells were maintained in a hypoxic condition (94% N2, 5% CO2, 1% O2, 37 °C) in oxygen glucose deprivation media (OGD, Life Technologies, Carlsbad, CA, USA) for 24 h. The cells were then reoxygenated in DMEM supplemented with 10% FBS (5% CO2, 20% O2, 37 °C) for another 24 h and cultured in Dulbecco’s modified Eagle’s medium (DMEM) (Gibco) containing high glucose, supplemented with 10% calf serum and 1% penicillin-streptomycin. To analyze the functional effects of leptin-PEG-FBP, normoxia- and hypoxia-induced N2a cells were seeded in a six-well plate at 2 × 10^5/well with serum-free DMEM and treated with leptin-PEG-FBP at 1 mM for 6 h followed by exposure to a soluble Fas ligand (5 nM). […]
# [3] = tested on: MCAO rat model; test: H&E histology of brain sections of MCAO rats; assay type: in vivo; details: 5 mg/kg i.v., 48 h, Fig 6C
# Description: (§1) The induction of apoptosis in the penumbra after MCAO results in brain damage, leading to the formation of infarcts or areas of tissue damage. To examine the impact of leptin-PEG-FBP on brain infraction, we conducted triphenyltetrazolium chloride (TTC) staining at 48 h post-treatment.
# (§2) Figure 6 Improvement of MCAO-induced infarction and histopathological changes with leptin-PEG-FBP treatment. MCAO rats were systemically treated with indicated peptides (5 mg/kg, i.v.) at […]. (A) Brain slices stained with TTC after necropsy. Quantitative analysis of infarction is shown on the right. Data represent mean ± SD (n = 5 animals per group). (B) Images of Nissl-stained brain slices (left) and quantitative analysis of infarction volume on the right. (C) Representative images of hematoxylin and eosin (H&E) brain sections from normal or MCAO-subjected animals after treatment. Data were analyzed using Mann–Whitney U test. Data represent the mean ± SD (* […]; ** p < 0.01; ns: not-significant).
# Rats were sacrificed and perfused with PBS. Brains were carefully removed, embedded in OCT compound (Sakura Finetek, Alphen aan den Rijn, The Netherlands), rapidly cryopreserved in frigid isopentane chilled with liquid nitrogen, and stored at −80 °C until the subsequent sectioning procedure. […]
# [4] = tested on: MCAO rat model; test: Nissl staining, infarction volume in MCAO rats; assay type: in vivo; details: 5 mg/kg i.v., 48 h, PBS group around 45%, Fig 6B
# Description: as §1, §2
# Infarcted brain volume was analyzed using Nissl staining. The OCT-embedded brain samples for cryosection were fixed using 4% PFA at room temperature and subjected to 0.1% crystal violet solution following standard protocol. The stained sections were cover-slipped and blindly pictured using full-screening scanner. The infarcted volume was calculated using Image J software version 1.54d.
# [5] = tested on: MCAO rat model; test: TUNEL assay of brain sections of MCAO rats; assay type: in vivo; details: 48 h post-MCAO
# Description: Ischemic stroke conditions in rat MCAO models lead to brain damage primarily through apoptosis. To assess the therapeutic effects of leptin-PEG-FBP on Fas-mediated apoptosis, we administrated 5 mg/kg of FBP systemically at 3 h and 6 h post-MCAO. At 48 h post-MCAO, we conducted necropsy to estimate the protein levels of Fas and cleaved caspase-3 in the brain samples. Ischemic stroke induced an elevated level of Fas and cleaved caspase-3, similar to the PBS-treated MCAO rats. […] Approximately 52% of cells were TUNEL-positive in the PBS-treated group, 55% in the PEG-FBP, and 47% in the leptin-treated group (Figure 5B). […]
# Figure 5 Leptin-PEG-FBP attenuates apoptosis in the MCAO rat model. […] (A) Representative Western blots and quantification of protein expression for Fas and cleaved caspase-3 in the brain of […] at 48 h post-MCAO. […] (B) Representative microscopy images of TUNEL-stained brain sections (red) and quantification of TUNEL-positive cells in the ischemic region of MCAO after necropsy. (C) Representative microscopy images of cleaved caspase-3-stained brain sections (green) and quantification of positive cells in the ischemic region of MCAO after necropsy. […] Data represent mean ± SD (n = 3 animals per group) and were analyzed using Mann–Whitney U test. […]
# [6] = mouse, in vivo, iv, 2.5 mg/kg
# Description: To confirm the specificity of leptin-mediated FBP delivery to the brain, we systemically administered Alexa^647-conjugated leptin alone, PEG-FBP, and leptin-PEG-FBP in leptin receptor-deficient db/db mice subjected to photothrombosis (Figure 3A).
# Wildtype and leptin receptor-deficient (db/db) mice were subjected to photothrombotic stroke, followed by administration of the indicated peptides (2.5 mg/kg Alexa^647-labelled peptides, i.v.). Organs were collected at 12 h post-delivery and imaged on Kodak imaging station. (A,B) Representative images and quantification of fluorescence intensities after necropsy. Control mice were inoculated with PBS. Fluorescence intensities measured in arbitrary pixel values were normalized to fluorescence intensities in the PBS-treated group. The data represent mean ± SD (n = 5 per group). The data in (B) were analyzed using Mann–Whitney U test (* p < 0.05; ** p < 0.01).
# (§3) For bio-distribution studies, Alexa^647-conjugated peptides were intravenously (IV) administered at 2.5 mg/kg. […] Fluorescence was analyzed at designated time points. After 12 h inoculation, fluorescence was measured in the brain, lung, liver, spleen, and kidney using image station (Kodak, Stamford, CT, USA).
# [7] = rat, in vivo, iv
# Description: Figure S2. Leptin peptide-mediated brain delivery in rats. Biodistribution (left panel)
# of A647-conjugated peptides delivered intravenous (n=3) in normal rats. Brain, lung,
# liver, spleen and kidney were examined 24 hr post- inoculation. Rats were treated with
# RV -M AT , the control peptide and the leptin peptide. Cumulative data (right panel)
# show relative fluorescence intensities measured in arbitrary pixel values for examined
# tissues. The measurements are compared to the n ormal groupand are based on three
# (1 picture or pasted object on this page, not shown here)
# [8] = tested on: MCAO rat model; test: TTC staining, infarction in MCAO rats; assay type: in vivo; details: 5 mg/kg i.v., 48 h post-MCAO, n = 5, PBS group 37%, Fig 6A
# Description: as §1, §2
# Pathology in brain tissues was analyzed by staining 2 mm brain slices in 2% 2,3,5-tryphenyltetrazolium chloride (TTC, Sigma Aldrich, St. Louis, MO, USA) for 15 min at 37 °C. The infarcted volume was calculated after fixation using Image J software version 1.54d, as described.
# [9] = rat, in vivo
# Description: To explore the feasibility of ischemic-specific FBP delivery, we administered Alexa^647-conjugated peptides to a rat middle cerebral artery occlusion (MCAO) ischemic stroke model. The peptides were delivered via the intravenous route (2.5 mg/kg) and the brain and peripheral organs were examined 24 h post-inoculation. […] Next, we conducted an in-depth analysis to validate the localization through confocal microscopy.
# Rats underwent middle cerebral artery occlusion, followed by the administration of the indicated Alexa^647-labelled peptides (2.5 mg/kg, i.v.). Organs were harvested 24 h post-inoculation and imaged on Kodak imaging station. […] Control mice were inoculated with PBS.
# Acute cerebral ischemia was produced using a 1 h occlusion of the right middle cerebral artery (MCAO) in Sprague–Dawley rats weighing 280–320 g (Orient Bio, Seoul, Republic of Korea), as previously described [76]. […]
# as §3
Sequence,effect on FasL-mediated apoptosis in Jurkat cells [1],decrease in Annexin V positivity upon exposure to FasL ([2]; Fig 1B) [%],effect on Fas-mediated apoptosis / cell death compared to control [2],"tissue damage in right hemisphere, H&E staining [3]","infarction volume, Nissl staining [4] [%]","TUNEL-positive cells in the ischemic region ([5]; 5 mg/kg i.v. at 3 h and 6 h post-MCAO, confocal, n = 3, PBS group 52%, Fig 5B) [%]","change in TUNEL and cleaved caspase-3 positive cells ([5]; 5 mg/kg i.v., Fig 5B,C)",brain delivery in leptin receptor-deficient db/db mice [6],delivery to the brain compared to negative control peptide RV-MAT [7],"infarction volume, TTC staining [8] [%]","Alexa647-positive cells in brain sections, confocal microscopy [9]"
YCDEHFCY [FBP],significantly reduced FasL-mediated apoptosis,40,significantly reduced cell death,–,–,–,–,–,–,–,–
YQQVLTSLPSQNVLQIANDLENLRDLLHLLGGGC [leptin],–,–,did not demonstrate a reduction,significant damage to the tissue morphology,~45,~47,no significant changes,did not bind to the brain,successful delivery to the brain,32,strong Alexa^647 positive cells
"YCNSTVCY [ctrl-FBP, control FBP peptide YCNSTVCY]",–,–,did not demonstrate a reduction,–,–,–,–,–,–,–,–
